Legend:
A. niger conidiospores = assay: Mould growth in bottles containing 1 mM 4-MCA + 1 mM putative inhibitor; type: cell-based, Aspergillus niger; conditions: 1 mM 4-MCA + 1 mM compound
Method: (§1) All compounds were tested to see if they prevented the degradation of 4-MCA by adding 10^6 A. niger conidiospores/ml to ACM medium at pH 4.0 containing 1 mM 4-methylcinnamic acid+1 mM putative inhibitor. Bottles were incubated at 28° C. and shaken at 120 rpm on an orbital shaker. Samples were taken at 5 and 72 hours.
Furthermore, other compounds generally more mould-toxic than the compounds listed in Table 2, were not able to inhibit mould growth when allied with 4-MCA at 1 mM e.g. (2,4-decadienal).

[1] = system: A. niger N402 conidiospores; assay: MIC determination in ACM medium pH 4.0; type: cell-based, Aspergillus niger; conditions: 1000 A. niger N402 conidiospores/ml, ACM pH 4.0, 28 C, 28 days, triplicate
Method: The possibility that the compounds found to inhibit 4-MCA degradation were acting as toxic agents was examined, by determination of their MIC (Minimum Inhibitory Concentration) values. The MIC value is the lowest concentration of inhibitor that will completely prevent growth of a microbe. In this case, MIC values were determined by preparation of a triplicate series of bottles of ACM medium (pH 4.0 10 mls) each bottle containing progressively higher concentrations of an inhibitor. Bottles were inoculated with 1000 A. niger N402 conidiospores/ml and were incubated at 28° C. for 28 days. The MIC was the lowest concentration of inhibitor preventing mould growth in all three replicates, and any other higher concentration of inhibitor.

[2] = system: PadA1 activity in A. niger conidiospores; assay: 4-MCA cloud disappearance (OD 600 nm) assay for PadA1 activity in mould spores; type: cell-based, Aspergillus niger; conditions: 1 mM 4-methylcinnamic acid + 1 mM putative inhibitor, 10^6 conidiospores/ml, ACM pH 4.0, 28 C, samples at 5 and 72 hours
Method: FIG. 2—illustrates the disappearance of the dense cloud of 4-methylcinnamic acid after addition of A. niger spores. The strain of A. niger used is A. niger N402. 10^6 A. niger conidiospores/ml were added to ACM medium (Aspergillus Complete Medium—which contains per one litre of water, 20 g glucose, 1.5 g casamino acids, 2 g bacteriological peptone, 1.5 g yeast extract, 6 g […], 0.52 g potassium chloride, 0.52 g magnesium sulphate heptahydrate, 1.52 g potassium orthophosphate, 1 mg ferrous sulphate, 1 mg zinc sulphate) at pH 4.0 containing 1 mM 4-methylcinnamic acid at time 0. Replicate cultures of 10 mls medium in 30 ml sealed bottles were incubated at 28° C. and shaken at 120 rpm on an orbital shaker. Each point represents the mean value of two bottles removed, sampled, and tested in a spectrophotometer at 600 nm;
10^6 A. niger conidiospores/ml were added to ACM medium at pH 4.0 containing 1 mM 4-methylcinnamic acid at time 0 (control—circles). Replicate cultures contained 1 mM 4-methylcinnamic acid+1 mM cinnamaldehyde (squares). Bottles were incubated at 28° C. and shaken at 120 rpm on an orbital shaker.
In the examples below a carboxylic acid similar to sorbic acid was used as it has unexpected properties which allow it to be easily assayed. The acid used was 4-methylcinnamic acid (4-MCA), which like sorbic acid is degraded by A. niger spores.
Unexpectedly 4-MCA forms a dense white cloud when added to water or growth media for moulds (such as ACM). The opacity of the cloud, when measured at an OD of 600 nm, is directly proportional to the concentration of 4-MCA. This makes it easy to assay for changes in 4-MCA levels. Up until now degradation of 4-MCA and sorbic acid has been determined through the detection of the volatile products produced after decarboxylation. The volatile products can be detected by using GCMS (Gas Chromatography/Mass Spectrometry), which is a slow and time consuming process.
It is understood that PadA1 in the germinating mould spores degrades the 4-MCA causing the white cloud to progressively disappear. Cloud disappearance is also accompanied by appearance of 4-methylstyrene in the headspace above the liquid medium (as illustrated in FIG. 3), which is measured by GCMS.
as §1

[3] = system: Aspergillus niger strain N402 conidiospores; assay: Spoilage of synthetic soft drink (ACM pH 4.0) with 300 ppm sorbic acid; type: cell-based; conditions: 300 ppm sorbic acid (2.68 mM) without PadA1 inhibitor, 28 days at 28 C
Method: Tests were carried out using ACM medium, pH 4.0, as a synthetic soft drink. Sorbic acid was added to the ACM, synthetic soft drink, at 300 ppm, which is the maximum level permitted in Europe.
The method used involved placing 10 ml of ACM pH 4.0+300 ppm sorbic acid (2.68 mM) in glass bottles (all experiments were carried out in triplicate) and inncoculating each 10 mls with 1000 conidiospores per ml of Aspergillus niger strain N402. Growth was measured after 28 days incubation at 28° C. PadA1 inhibitors of Formula I were added at 0, 0.025 mM, 0.05 mM, 0.1 mM, 0.15 mM, 0.2 mM, 0.3 mM, 0.4 mM, 0.5 mM, 0.6 mM, 0.8 mM, 1 mM.

CCC=CC=CC=O [2,4-Heptadienal]
mould growth in bottles with 4-MCA + compound (A. niger conidiospores): not

CCCCCC=CC=CC=O [2,4-decadienal]
mould growth in bottles with 4-MCA + compound (A. niger conidiospores): Mould growth occurred | MIC (Minimum Inhibitory Concentration), comparison in words [1]: lower MIC than any of the compounds listed on Table 2 | inhibition of degradation of 4-MCA by germinating conidiospores of A. niger [2]: does not block PadA1 activity

O=CC=Cc1ccccc1 [Cinnamaldehyde]
inhibition of degradation of 4-MCA by germinating conidiospores of A. niger [2]: inhibits the degradation

O=C(O)C#Cc1ccccc1 [Phenyl propiolic acid]
inhibition of degradation of 4-MCA by germinating conidiospores of A. niger [2]: inhibited degradation

O=CC#Cc1ccccc1 [phenyl propargyl aldehyde]
inhibition of degradation of 4-MCA by germinating conidiospores of A. niger [2]: inhibited degradation

CC=CC=CC(=O)O [sorbic acid, 2,4-hexadienoic acid]
prevention of spoilage by A. niger conidiospores of the synthetic soft drink, sorbic acid alone [3]: insufficient to prevent spoilage

— patent publication US20100221398A1, “PRESERVATIVE” (priority 2007, published 2010)
